Test results reported in patent US7671258B2, “Surfactant peptide nanostructures, and uses thereof” (Massachusetts Institute of Technology, priority 2001, dated 2010).
Residues, ends and D or L forms follow the SMILES beside them.

Assay: Cryo-transmission electron microscopy of aqueous peptide solutions (self-assembly)
Format: physicochemical
Conditions: Cryo-TEM, aqueous solution 5 mg/ml, pH 7
Procedure: Cryo-transmission electron microscopy experiments were performed on aqueous solution of the different peptides at a concentration of 5 mg/ml. In order to solubilize these peptides in water, it was necessary to deprotonate the carboxylic groups by adjusting the pH with a solution of sodium hydroxide 0.1N. The oligopeptides investigated start to be soluble in water at pH 5 to 6, depending on the amino acid sequence. All the experiments presented in this work were carried out using peptide solutions at pH 7. […] The cylindrical assemblers present a three-dimensional transient network somehow similar to flexible polymers in their semidilute or concentrated solutions^22. It should be pointed out that, in the electron micrographs, only a two-dimensional projection of the peptides nanotubes could be imaged. The network below and above a defined point in the space could be relatively distant in three dimensions, while appearing superimposed in the two-dimensional projection. […] These self-assemblies have high axial ratios and extend in length to several tens of micrometers. Additionally, one can easily identify many three-fold junctions or branchings connecting the nanotubes and thus forming the final network. […] Alternatively, two nanotubes could fuse together to form a tentative 4-arm branch. It has been shown that this kind of branching is energetically unstable and, thus, those observed in FIG. 3 are most likely due to the 2-D representation of a spatial network.
In fact, one can easily recognize nanotubes of about 50 nm diameter linked by an increased numbers of three-fold junction. As a result, the branches are more abundant than those observed in the samples VVVVVVD (V6D) (SEQ ID NO: 36), […] (SEQ ID NO: 38) and AAAAAAD (A6D) (SEQ ID NO: 37). They have also a smaller axial ratio and a much smaller average diameter of about 10 to 15 nm. […] (SEQ ID NO: 39) is the most hydrophobic compound with the tail constituted of six leucines. […] These molecular assemblies are very similar to threadlike micellar systems made from traditional amphiphilic molecules such as cetyltrimethylammonium bromide (CTAB)^29-30. It should be noted that a large number of vesicle-like spherical assemblies also appear in the TEM micrograph.
Cryo-TEM micrograph at high resolution provides a detailed structure of the peptide nanotubes formed by AAAAAAD (SEQ ID NO: 35) (see FIG. 4). […] Additionally, helical pitches between 150 and 200 nm, depending on the nanotubes diameter, were also observed. Similar results have been documented with hollow cylinders formed of bilayer membrane of diacetylenic lipids^31. Theories based on molecular chirality have been developed to explain the presence of helical markings that wind around the cylinders^32.

Row | SMILES | nanotube diameter | morphology of the self-assemblies | morphology of the self-assemblies (listed as AAAAAAD)
1 | CC(=O)N[C@@H](C)C(=O)N[C@@H](C)C(=O)N[C@@H](C)C(=O)N[C@@H](C)C(=O)N[C@@H](C)C(=O)N[C@@H](C)C(=O)N[C@@H](CC(=O)O)C(=O)N[C@@H](CC(=O)O)C(=O)O [A6D2, [Acetyl]-AAAAAADD-CO2] (Ac-AAAAAADD-OH) | about 50 nm | – | –
2 | CC(=O)N[C@@H](C)C(=O)N[C@@H](C)C(=O)N[C@@H](C)C(=O)N[C@@H](C)C(=O)N[C@@H](C)C(=O)N[C@@H](C)C(=O)N[C@@H](CC(=O)O)C(=O)O [A6D, [Acetyl]-AAAAAAD-CO2] (Ac-AAAAAAD-OH) | – | cylindrical morphologies | hollow tubular structures
3 | CC(=O)N[C@@H](CC(C)C)C(=O)N[C@@H](CC(C)C)C(=O)N[C@@H](CC(C)C)C(=O)N[C@@H](CC(C)C)C(=O)N[C@@H](CC(C)C)C(=O)N[C@@H](CC(C)C)C(=O)N[C@@H](CC(=O)O)C(=O)N[C@@H](CC(=O)O)C(=O)O [L6D2, [Acetyl]-LLLLLLDD-CO2] (Ac-LLLLLLDD-OH) | – | does not exhibit any nanotubular structures but rather a network of entangled rodlike micelles | –
4 | CC(=O)N[C@H](C(=O)N[C@H](C(=O)N[C@H](C(=O)N[C@H](C(=O)N[C@H](C(=O)N[C@H](C(=O)N[C@@H](CC(=O)O)C(=O)N[C@@H](CC(=O)O)C(=O)O)C(C)C)C(C)C)C(C)C)C(C)C)C(C)C)C(C)C [V6D2, [Acetyl]-VVVVVVDD-CO2] (Ac-VVVVVVDD-OH) | – | cylindrical morphologies | –
5 | CC(=O)N[C@H](C(=O)N[C@H](C(=O)N[C@H](C(=O)N[C@H](C(=O)N[C@H](C(=O)N[C@H](C(=O)N[C@@H](CC(=O)O)C(=O)O)C(C)C)C(C)C)C(C)C)C(C)C)C(C)C)C(C)C [V6D, [Acetyl]-VVVVVVD-CO2] (Ac-VVVVVVD-OH) | – | cylindrical morphologies | –
